# Measured values published in BindingDB's records for PubMed 7791120 (Hospital Saint-Antoine, 1995).
# Where “and” joins values, the source holds several entries; their conditions need not be identical. Equal values may be shown once.
# Biological target: Neurotensin (Cavia porcellus, UniProt P32560)
row,Ki,SMILES
1,0.99 nM and 2.5 nM,COc1cccc(OC)c1-c1cc(C(=O)NC2(C(=O)O)C3CC4CC(C3)CC2C4)nn1-c1ccnc2cc(Cl)ccc12 (centres undefined)
2,1.7 nM and 4.5 nM,COc1cccc(OC)c1-c1cc(C(=O)N[C@H](C(=O)O)C2CCCCC2)nn1-c1ccnc2cc(Cl)ccc12
3,1600 nM,CCC(C)C(N)C(=O)C(C)(CC(=O)C(N)CCCCN)C(C(=O)C(N)Cc1ccc(O)cc1)(C(=O)C1CCCN1)C(N)(C(=O)O)C(=O)C(N)C(C)CC (centres undefined) [NSC_3025353]
4,2000 nM and 2100 nM,COc1cccc(OC)c1-c1cc(C(=O)N[C@@H](C(=O)O)C2CCCCC2)nn1-c1ccnc2cc(Cl)ccc12 [SR 49711]
